Drawing on patent US8354419B2, “Benzimidazole analogues for the treatment or prevention of flavivirus infections” (Vertex Pharmaceuticals Incorporated, priority 2009, dated 2013), this text covers EC50 for 31 molecules.

For the experiment, the system named is HCV (Ib) RNA replication. The experiment can be described thus: Cell-based luciferase reporter HCV (1b) RNA replication assay (replicon cell lines Huh-7 5.2 and ET). The arrangement: species or system Hepatitis C virus. The conditions noted are these: Hepatitis C virus, Huh-7, 96 h, HCV 1b genotype replicon, luciferase readout, 4 days incubation; read-out: EC50_1b. In outline: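 Huh-7-derived 5.2 or ET replicon cells carrying a firefly luciferase reporter were seeded at ~3000 cells/well in medium without G418 or phenol red. Compound was added after 3-4 h, followed by 4 days at 37 °C. Luciferase readout was used, with IC50 fitted by nonlinear regression from eleven concentrations in duplicate.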
For orientation: In a reporter assay the amount or activity of a reporter protein is the signal.
With `CC(C)(C)OC(=O)N1CC[C@H]1C(=O)N1CCC[C@H]1c1nc2cc(C#Cc3ccc4[nH]c([C@@H]5CCCN5C(=O)[C@@H]5CCN5C(=O)OC(C)(C)C)nc4c3)ccc2[nH]1` [Compound 129], the EC50 was > 5000 nM.
Take `CC(C)(C)OC(=O)NC1(C(=O)N2CCC[C@H]2c2nc3cc(C#Cc4ccc5[nH]c([C@@H]6CCCN6C(=O)C6(NC(=O)OC(C)(C)C)CCC6)nc5c4)ccc3[nH]2)CCC1` [Compound 130]: the EC50 was 5 to 5000 nM.
In the case of `COC(=O)N[C@H](C(=O)N1CCC[C@H]1c1nc2cc(-c3ccsc3-c3ccc4[nH]c([C@@H]5CCCN5C(=O)[C@@H](NC(=O)OC)C(C)C)nc4c3)ccc2[nH]1)C(C)C` [Compound 133] it was ≤ 5 nM.
Under `CC(C)(C)CCN1CCC[C@H]1c1nc2cc(C#Cc3ccc4[nH]c([C@@H]5CCCN5CCC(C)(C)C)nc4c3)ccc2[nH]1` [Compound 134] stands 5 to 5000 nM.
In the case of `CC(C)CCN1CCC[C@H]1c1nc2cc(C#Cc3ccc4[nH]c([C@@H]5CCCN5CCC(C)C)nc4c3)ccc2[nH]1` [Compound 135] it was 5 to 5000 nM.
With `C(#Cc1ccc2[nH]c([C@@H]3CCCN3CC3CCCCC3)nc2c1)c1ccc2[nH]c([C@@H]3CCCN3CC3CCCCC3)nc2c1` [Compound 136], the EC50 lay in the range of 5 to 5000 nM.
`CCC(C)CN1CCC[C@H]1c1nc2cc(C#Cc3ccc4[nH]c([C@@H]5CCCN5CC(C)CC)nc4c3)ccc2[nH]1` (stereo partly shown) [Compound 137]: the EC50 was 5 to 5000 nM.
Under `C(#Cc1ccc2[nH]c([C@@H]3CCCN3CCC3CCOCC3)nc2c1)c1ccc2[nH]c([C@@H]3CCCN3CCC3CCOCC3)nc2c1` [Compound 138] stands 5 to 5000 nM; under `C(#Cc1ccc2[nH]c([C@@H]3CCCN3CC3CCCC3)nc2c1)c1ccc2[nH]c([C@@H]3CCCN3CC3CCCC3)nc2c1` [Compound 139], 5 to 5000 nM; under `CCC(CC)CN1CCC[C@H]1c1nc2cc(C#Cc3ccc4[nH]c([C@@H]5CCCN5CC(CC)CC)nc4c3)ccc2[nH]1` [Compound 140], 5 to 5000 nM.
Consider `COC(=O)N[C@H](C(=O)N1CCC[C@H]1c1nc2cc(-c3ccc(-c4ccc5nc([C@@H]6CCCN6C(=O)[C@@H](NC(=O)OC)C(C)C)[nH]c5c4)cc3[N+](=O)[O-])ccc2[nH]1)C(C)C` [Compound 141], for which the EC50 was ≤ 5 nM.
In the case of `COC(=O)N[C@H](CC1CCC1)C(=O)N1CCC[C@H]1c1nc2ccc(C#Cc3ccc4nc([C@@H]5CCCN5C(=O)[C@@H](CC5CCC5)NC(=O)OC)[nH]c4c3)cc2[nH]1` [Compound 142] it was ≤ 5 nM; in that of `COC(=O)N[C@H](C(=O)N1CCC[C@H]1c1nc2cc(-c3c(F)cc(-c4ccc5nc([C@@H]6CCCN6C(=O)[C@@H](NC(=O)OC)C(C)C)[nH]c5c4)cc3F)ccc2[nH]1)C(C)C` [Compound 143], ≤ 5 nM; in that of `COC(=O)N[C@H](C(=O)N1CCC[C@H]1c1nc2cc(C)c(-c3ccc(-c4cc5[nH]c([C@@H]6CCCN6C(=O)[C@@H](NC(=O)OC)C(C)C)nc5cc4C)cc3)cc2[nH]1)C(C)C` [Compound 144], ≤ 5 nM.
Under `COC(=O)N[C@H](C(=O)N1CC[C@H]1c1nc2ccc(-c3ccc(-c4ccc5nc([C@@H]6CCN6C(=O)[C@@H](NC(=O)OC)C(C)C)[nH]c5c4)cc3)cc2[nH]1)C(C)C` [Compound 145] stands ≤ 5 nM; under `COC(=O)N[C@H](C(=O)N1CCC[C@H]1c1nc2cc(-c3ccc(-c4ccc5nc([C@@H]6CCCN6C(=O)[C@@H](NC(=O)OC)C(C)C)[nH]c5c4)c4c3OCO4)ccc2[nH]1)C(C)C` [Compound 146], ≤ 5 nM.
For the molecule `COC(=O)N[C@H](C(=O)N1CCC[C@H]1c1nc2cc(C#Cc3ccc(-c4ccc5[nH]c([C@@H]6CCCN6C(=O)[C@@H](NC(=O)OC)C(C)C)nc5c4)cc3)ccc2[nH]1)C(C)C` [Compound 147], the EC50 is ≤ 5 nM.
In the case of `COC(=O)N[C@H](C(=O)N1CCCC[C@H]1c1nc2ccc(-c3ccc(-c4ccc5nc([C@@H]6CCCCN6C(=O)[C@@H](NC(=O)OC)C(C)C)[nH]c5c4)cc3)cc2[nH]1)C(C)C` [Compound 148] it was ≤ 5 nM.
In the case of `COC(=O)N[C@H](C(=O)N1CCC[C@H]1c1nc2cc(-c3c(C)cc(-c4ccc5nc([C@@H]6CCCN6C(=O)[C@@H](NC(=O)OC)C(C)C)[nH]c5c4)cc3C)ccc2[nH]1)C(C)C` [Compound 149] it was ≤ 5 nM; in that of `COC(=O)N[C@H](C(=O)N1CCC[C@H]1c1nc2cc(-c3ccc(-c4ccc5[nH]c([C@@H]6CCCN6C(=O)[C@@H](NC(=O)OC)C(C)C)nc5c4)c(S(C)(=O)=O)c3)ccc2[nH]1)C(C)C` [Compound 150], ≤ 5 nM; in that of `COC(=O)NCCN1CCC[C@H]1c1nc2cc(C#Cc3ccc4[nH]c([C@@H]5CCCN5CCNC(=O)OC)nc4c3)ccc2[nH]1` [Compound 151], 5 to 5000 nM.
In the case of `Cc1nc(C)c(C(=O)N2CCC[C@H]2c2nc3cc(C#Cc4ccc5nc([C@@H]6CCCN6C(=O)c6sc(C)nc6C)[nH]c5c4)ccc3[nH]2)s1` [Compound 152] it was 5 to 5000 nM; in that of `CCCC/C(=C/c1ccc2[nH]c([C@@H]3CCCN3C(=O)[C@@H](NC(=O)OC)C(C)C)nc2c1)c1ccc2[nH]c([C@@H]3CCCN3C(=O)[C@@H](NC(=O)OC)C(C)C)nc2c1` [Compound 153], ≤ 5 nM.
In the case of `COC(=O)N[C@H](C(=O)N1CCC[C@H]1c1nc2cc(-c3cc(C#N)c(-c4ccc5[nH]c([C@@H]6CCCN6C(=O)[C@@H](NC(=O)OC)C(C)C)nc5c4)cc3Cl)ccc2[nH]1)C(C)C` [Compound 154], the EC50 was ≤ 5 nM.
In the case of `COC(=O)N[C@H](C(=O)N1CCC[C@H]1c1nc2cc(-c3cc(C)c(-c4ccc5[nH]c([C@@H]6CCCN6C(=O)[C@@H](NC(=O)OC)C(C)C)nc5c4)s3)ccc2[nH]1)C(C)C` [Compound 155] it was ≤ 5 nM; in that of `Cc1cc(-c2ccc3[nH]c([C@@H]4CCCN4C(=O)[C@@H](NC(=O)O[C@H]4CCOC4)C(C)C)nc3c2)sc1-c1ccc2[nH]c([C@@H]3CCCN3C(=O)[C@@H](NC(=O)O[C@H]3CCOC3)C(C)C)nc2c1` [Compound 156], 5 to 5000 nM.
In the case of `CCCCc1cc(-c2ccc3[nH]c([C@@H]4CCCN4C(=O)[C@@H](NC(=O)OC)C(C)C)nc3c2)sc1-c1ccc2[nH]c([C@@H]3CCCN3C(=O)[C@@H](NC(=O)OC)C(C)C)nc2c1` [Compound 157] it was ≤ 5 nM; in that of `CCCCc1cc(-c2ccc3[nH]c([C@@H]4CCCN4C(=O)[C@@H](NC(=O)O[C@H]4CCOC4)C(C)C)nc3c2)sc1-c1ccc2[nH]c([C@@H]3CCCN3C(=O)[C@@H](NC(=O)O[C@H]3CCOC3)C(C)C)nc2c1` [Compound 158], ≤ 5 nM; in that of `COC(=O)N[C@H](C(=O)N1CCC[C@H]1c1nc2cc(-c3csc(-c4ccc5[nH]c([C@@H]6CCCN6C(=O)[C@@H](NC(=O)OC)C(C)C)nc5c4)n3)ccc2[nH]1)C(C)C` [Compound 159], ≤ 5 nM.
In the case of `CC(C)[C@H](NC(=O)O[C@H]1CCOC1)C(=O)N1CCC[C@H]1c1nc2cc(-c3csc(-c4ccc5[nH]c([C@@H]6CCCN6C(=O)[C@@H](NC(=O)O[C@H]6CCOC6)C(C)C)nc5c4)n3)ccc2[nH]1` [Compound 160] it was 5 to 5000 nM.
Turning to `COC(=O)N[C@H](C(=O)N1CCC[C@H]1c1nc2cc(-c3ccc(-c4ccc5nc([C@@H]6CCCN6C(=O)[C@@H](NC(=O)OC)C(C)C)[nH]c5c4)cc3CO)ccc2[nH]1)C(C)C` [Compound 161], the EC50 was ≤ 5 nM.
